# Assays:
# Assay in all cases: Agar plate count after contact with antifungal
# [1] = test system: Pedicoccus damnosus IFBM; type: cell-based
# Text: (§1) The word “bactericide” refers to a treatment having the effect of reducing a bacterial population by at least three decimal logarithms of colony forming units/ml on an agar plate count of a sample after treatment.
# (§2) The toxicity results on yeasts and on bacteria are presented in the table below displaying the duration of exposure of the fungal flora to molecule A1 and the associated fluorescence measurement: yeasts lysis after exposure to the antifungal was confirmed by microscopic examination and methylene blue staining.
# (§3) The words “contact time” refer to below, the time of exposure of the microorganisms to the fungicidal product, here molecule A1.
# (§4) Below: “No CFU” is the abbreviation for “No Colony forming unit on agar plate count”.
# (§5) The toxicity results on yeasts and on bacteria are presented in the table below displaying the duration of exposure of the fungal flora to the molecule A2 and are obtained by enumeration on MRS agar media.
# [2] = test system: Sacch. Cerevisae Saflager S23; type: cell-based, Saccharomyces cerevisae; conditions: 400 mg/L; count at contact time 0 h 9.10^4 CFU/mL
# Text: as §1, §2, §3, §4, §5
# [3] = test system: Sacch. Cerevisae DSM 70449; type: cell-based, Saccharomyces cerevisae; conditions: 400 mg/L; count at contact time 0 h 8.10^4 CFU/mL
# Text: as §1, §2, §3, §4, §5
structure (smiles),measurement,setting,value
"C[C@@H]1[C@H](O)[C@@H](C)/C=C/C=C/C=C/C=C/C=C/C=C/C=C/[C@H](O[C@@H]2O[C@H](C)[C@@H](O)[C@H](N)[C@@H]2O)C[C@@H]2O[C@](O)(C[C@@H](O)C[C@@H](O)[C@H](O)CC[C@@H](O)C[C@@H](O)CC(=O)O[C@H]1C)C[C@H](O)[C@H]2C(=O)O [Molecule A1, Amphotericin B]",Agar plate count contact time 4 h,"[1]; 200 mg/L, count at contact time 0 h 7.2.10^5 CFU/mL",8.10^5 CFU/mL
same,Agar plate count contact time 4 h,"[1]; 400 mg/L, count at contact time 0 h 1.1.10^5 CFU/mL",2.10^7 CFU/mL
same,Agar plate count contact time 4 h,[2],No CFU
same,Agar plate count contact time 4 h,[3],No CFU

# Reference: patent US20180037923A1, “SELECTIVE DETECTION OF LACTIC ACID AND/OR ACETIC ACID BACTERIA OR OF FUNGI” (priority 2015, published 2018)
